In patent US11986471B2, “Compounds and methods of use” (Tango Therapeutics, Inc., priority 2018, dated 2024):
pIC50: −log10 of the molar value.

Key:
PRMT5 [1] = biological target: T1, PRMT5 (Homo sapiens, UniProt O14744); assay: PRMT5 IC50 assay in the presence of MTA as cofactor; type: biochemical; settings: for pIC50: PRMT5, MTA as cofactor
T1 construct: purchased Viva (custom protein)
How it was run: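 MTA-dependent versus SAM-dependent inhibition of human PRMT5 was assessed by IC50; conversion factors of 13.5 and 1.5 gave the corresponding Ki.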

PRMT5 [2] = biological target: T1, PRMT5; assay: PRMT5 IC50 assay with no cofactor; type: biochemical
How it was run: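 Potency against PRMT5 is compared across cofactor states, where IC50 equals Ki×1.5 with SAM present and Ki×13.5 with MTA present.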

HAP1 MTAP-intact = assay: SDMA in-cell western assay, HAP1 MTAP-intact cell line; type: cell-based; settings: Homo sapiens
How it was run: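 Using an MTAP-isogenic HAP1 cell pair, inhibition of SDMA formation is read by in-cell western and expressed as IC50. MTAP-selectivity is assigned where the ratio between lines reaches 3 fold or greater.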

HAP1 MTAP-deleted = assay: SDMA in-cell western assay, HAP1 MTAP-deleted cell line; type: cell-based; settings: for pIC50: Homo sapiens, HAP1 MTAP-deleted cell line; for MTAP Intact/Deleted Ratio: IC50 ratio HAP1 MTAP-intact / HAP1 MTAP-deleted
How it was run: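 In-cell western for SDMA marks; MTAP-deleted (null) HAP1 background; values given as IC50.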

PRMT5 [3] = biological target: T1, PRMT5; assay: PRMT5 IC50 assay in the presence of SAM as cofactor; type: biochemical
How it was run: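 Three cofactor conditions are run: SAM-bound, MTA-bound and cofactor-free enzyme. IC50 is read from each; for the SAM and MTA arms it is divided by 1.5 and 13.5 respectively to give Ki.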

[4] = ratio between Ki in the presence of SAM and Ki in the presence of MTA
[5] = ratio between the Ki in the presence of SAM and the Ki in the presence of MTA

T1 sequence (O14744 whole entry): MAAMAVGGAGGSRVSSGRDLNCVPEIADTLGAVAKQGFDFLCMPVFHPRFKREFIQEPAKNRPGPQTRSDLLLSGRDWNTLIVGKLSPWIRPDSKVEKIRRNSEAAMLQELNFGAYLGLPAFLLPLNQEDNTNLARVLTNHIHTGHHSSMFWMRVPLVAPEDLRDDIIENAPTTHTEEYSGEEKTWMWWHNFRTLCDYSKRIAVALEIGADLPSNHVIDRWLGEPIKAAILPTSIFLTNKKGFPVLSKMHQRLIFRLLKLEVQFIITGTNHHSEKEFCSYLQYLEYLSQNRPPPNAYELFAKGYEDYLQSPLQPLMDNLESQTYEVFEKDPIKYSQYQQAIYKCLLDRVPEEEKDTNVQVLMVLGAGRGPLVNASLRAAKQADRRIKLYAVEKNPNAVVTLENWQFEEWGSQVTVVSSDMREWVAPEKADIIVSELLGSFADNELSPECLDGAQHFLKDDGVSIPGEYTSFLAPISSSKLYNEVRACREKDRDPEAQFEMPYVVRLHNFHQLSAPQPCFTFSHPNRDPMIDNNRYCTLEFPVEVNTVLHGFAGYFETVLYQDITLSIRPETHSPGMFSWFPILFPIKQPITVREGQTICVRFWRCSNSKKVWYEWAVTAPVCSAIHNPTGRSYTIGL
T1 sequence (Q9BQA1 whole entry partner): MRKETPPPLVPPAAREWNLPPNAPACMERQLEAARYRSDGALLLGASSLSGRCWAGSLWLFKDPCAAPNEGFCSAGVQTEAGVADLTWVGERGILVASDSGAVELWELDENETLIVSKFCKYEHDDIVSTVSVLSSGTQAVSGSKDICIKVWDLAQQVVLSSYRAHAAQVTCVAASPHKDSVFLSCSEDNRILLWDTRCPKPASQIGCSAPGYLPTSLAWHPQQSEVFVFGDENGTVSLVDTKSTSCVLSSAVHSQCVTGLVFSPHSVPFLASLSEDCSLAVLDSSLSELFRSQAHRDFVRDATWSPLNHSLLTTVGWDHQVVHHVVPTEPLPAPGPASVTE

## CCC(=O)N1CCN(c2nc(NC3COC3)cc(C(=O)NC[C@H](O)CN3CCc4c(ccc(OCc5cnco5)c4Cl)C3)n2)CC1 [Compound 318, (S)—N-(3-(5-chloro-6-(oxazol-5-ylmethoxy)-3N-dihydroisoquinolin-2(1H)-yl)-2-hydroxypropyl)-6-(oxetan-3-ylamino)-2-(4-propionylpiperazin-1-yl)pyrimidine-4-carboxamide]
PRMT5 [1]
  pIC50: 6.30 to 7.30
PRMT5 [1]; [4]
  SAM/MTA Ratio: A (a Ki ratio greater than or equal to 10 fold between the Ki in the presence of SAM and the Ki in the presence of MTA)
PRMT5 [2]; read-out: No Co-factor IC50
  pIC50: 5.30 to 6.30
HAP1 MTAP-intact
  pIC50: ≤ 5.00
HAP1 MTAP-deleted
  pIC50: 5.00 to 6.00
  MTAP Intact/Deleted Ratio: C* (an IC50 ratio of less than 3 fold between the IC50 in the HAP1 MTAP-intact cell line and the HAP1 MTAP-deleted cell line)
PRMT5 [3]
  pIC50: 6.30 to 7.30

## Cc1c(OCc2cnco2)cc(F)c2c1CCN(C[C@@H](O)CNC(=O)c1ccnc(NC3CCC3)c1)C2 [Compound 341, 2-(cyclobutylamino)-N-[(2S)-3-[8-fluoro-5-methyl-6-(oxazol-5-ylmethoxy)-3,4-dihydro-1H-isoquinolin-2-yl]-2-hydroxy-propyl]pyridine-4-carboxamide]
PRMT5 [1]
  pIC50: 6.30 to 7.30
PRMT5 [1]; [4]
  SAM/MTA Ratio: A (a Ki ratio greater than or equal to 10 fold between the Ki in the presence of SAM and the Ki in the presence of MTA)
PRMT5 [2]; read-out: No Co-factor IC50
  pIC50: 5.30 to 6.30
HAP1 MTAP-intact
  pIC50: ≤ 5.00
HAP1 MTAP-deleted
  pIC50: 5.00 to 6.00
  MTAP Intact/Deleted Ratio: B* (an IC50 ratio greater than or equal to 3 fold but lower than 10 fold between the IC50 in the HAP1 MTAP-intact cell line and the HAP1 MTAP-deleted cell line)
PRMT5 [3]
  pIC50: 6.30 to 7.30

## Cc1ncoc1COc1ccc2c(c1C)CCN(C[C@@H](O)CNC(=O)c1cccc(NC3CCC3)c1)C2 [Compound 488, 3-(cyclobutylamino)-N-[(2S)-2-hydroxy-3-{5-methyl-6-[(4-methyl-1,3-oxazol-5-yl)methoxy]-1,2,3,4-tetrahydroisoquinolin-2-yl}propyl]benzamide]
PRMT5 [1]
  pIC50: 6.30 to 7.30
PRMT5 [1]; [5]
  SAM/MTA Ratio: A (a Ki ratio greater than or equal to 10 fold between the Ki in the presence of SAM and the Ki in the presence of MTA)
PRMT5 [2]
  pIC50: ≤ 5.30
HAP1 MTAP-intact
  pIC50: ≤ 5.00
HAP1 MTAP-deleted
  pIC50: 5.00 to 6.00
  MTAP Intact/Deleted Ratio: C* (an IC50 ratio of less than 3 fold between the IC50 in the HAP1 MTAP-intact cell line and the HAP1 MTAP-deleted cell line)
PRMT5 [3]
  pIC50: 5.30 to 6.30

## O=C(NC[C@H](O)CN1CCc2c(ccc(OCc3cnco3)c2Cl)C1)c1cc(NC2CCC2)ncc1F [Compound 340, (S)—N-(3-(5-chloro-6-(oxazol-5-ylmethoxy)-3N-dihydroisoquinolin-2(1H)-yl)-2-hydroxypropyl)-2-(cyclobutylamino)-5-fluoroisonicotinamide]
PRMT5 [1]
  pIC50: 6.30 to 7.30
PRMT5 [1]; [4]
  SAM/MTA Ratio: A (a Ki ratio greater than or equal to 10 fold between the Ki in the presence of SAM and the Ki in the presence of MTA)
PRMT5 [2]; read-out: No Co-factor IC50
  pIC50: ≤ 5.30
HAP1 MTAP-intact
  pIC50: ≤ 5.00
HAP1 MTAP-deleted
  pIC50: ≤ 5.00
  MTAP Intact/Deleted Ratio: C* (an IC50 ratio of less than 3 fold between the IC50 in the HAP1 MTAP-intact cell line and the HAP1 MTAP-deleted cell line)
PRMT5 [3]
  pIC50: 5.30 to 6.30

## O=C(NC[C@H](O)CN1CCc2cc(OCc3cnco3)ccc2C1)c1cc(NC2CCC2)nc(N2CCNCC2)c1 [Compound 422]
PRMT5 [1]
  pIC50: 6.30 to 7.30
PRMT5 [1]; [4]
  SAM/MTA Ratio: A (a Ki ratio greater than or equal to 10 fold between the Ki in the presence of SAM and the Ki in the presence of MTA)
PRMT5 [2]; read-out: No Co-factor IC50
  pIC50: 5.30 to 6.30
HAP1 MTAP-intact
  pIC50: 5.00 to 6.00
HAP1 MTAP-deleted
  pIC50: 5.00 to 6.00
  MTAP Intact/Deleted Ratio: C* (an IC50 ratio of less than 3 fold between the IC50 in the HAP1 MTAP-intact cell line and the HAP1 MTAP-deleted cell line)
PRMT5 [3]
  pIC50: 6.30 to 7.30

## CC(C)C(=O)N1CCC(Nc2cc(C(=O)NC[C@H](O)CN3CCc4c(ccc(OCc5cnco5)c4Cl)C3)ccn2)CC1 [Compound 452]
PRMT5 [1]
  pIC50: 6.30 to 7.30
PRMT5 [1]; [5]
  SAM/MTA Ratio: A (a Ki ratio greater than or equal to 10 fold between the Ki in the presence of SAM and the Ki in the presence of MTA)
PRMT5 [2]
  pIC50: 5.30 to 6.30
HAP1 MTAP-intact
  pIC50: ≤ 5.00
HAP1 MTAP-deleted
  pIC50: 5.00 to 6.00
  MTAP Intact/Deleted Ratio: B* (an IC50 ratio greater than or equal to 3 fold but lower than 10 fold between the IC50 in the HAP1 MTAP-intact cell line and the HAP1 MTAP-deleted cell line)
PRMT5 [3]
  pIC50: 6.30 to 7.30

## O=C(NC[C@H](O)CN1CCc2c(ccc(OCc3cnco3)c2Cl)C1)c1ccnc(NC2CCC2)c1 [Compound 194, N-[(2S)-3-[5-chloro-6-(oxazol-5-ylmethoxy)-3,4-dihydro-1H-isoquinolin-2-yl]-2-hydroxy-propyl]-2-(cyclobutylamino)pyridine-4-carboxamide]
PRMT5 [1]
  pIC50: 6.30 to 7.30
PRMT5 [2]; read-out: No Co-factor IC50
  pIC50: ≤ 5.30
HAP1 MTAP-intact
  pIC50: ≤ 5.00
HAP1 MTAP-deleted
  pIC50: ≤ 5.00
  MTAP Intact/Deleted Ratio: C* (an IC50 ratio of less than 3 fold between the IC50 in the HAP1 MTAP-intact cell line and the HAP1 MTAP-deleted cell line)
PRMT5 [3]
  pIC50: 5.30 to 6.30

## Cc1ncoc1COc1ccc2c(c1C)CCN(C[C@@H](O)CNC(=O)c1cc(NC3CCCC3)ncn1)C2 [Compound 367, 6-(cyclopentylamino)-N-[(2S)-2-hydroxy-3-{5-methyl-6-[(4-methyl-1,3-oxazol-5-yl)methoxy]-1,2,3,4-tetrahydroisoquinolin-2-yl}propyl]pyrimidine-4-carboxamide]
PRMT5 [1]
  pIC50: 6.30 to 7.30
PRMT5 [1]; [4]
  SAM/MTA Ratio: A (a Ki ratio greater than or equal to 10 fold between the Ki in the presence of SAM and the Ki in the presence of MTA)
PRMT5 [2]; read-out: No Co-factor IC50
  pIC50: ≤ 5.30
HAP1 MTAP-intact
  pIC50: ≤ 5.00
HAP1 MTAP-deleted
  pIC50: ≤ 5.00
  MTAP Intact/Deleted Ratio: C* (an IC50 ratio of less than 3 fold between the IC50 in the HAP1 MTAP-intact cell line and the HAP1 MTAP-deleted cell line)
PRMT5 [3]
  pIC50: 5.30 to 6.30

## Cc1ncoc1COc1ccc2c(c1C)CCN(C[C@@H](O)CNC(=O)c1cc(NC3COC3)nc(N3CCN(C(C)(C)C)CC3)n1)C2 [Compound 435, 2-(4-tert-butylpiperazin-1-yl)-N-[(2S)-2-hydroxy-3-{5-methyl-6-[(4-methyl-1,3-oxazol-5-yl)methoxy]-1,2,3,4-tetrahydroisoquinolin-2-yl}propyl]-6-[(oxetan-3-yl)amino]pyrimidine-4-carboxamide]
PRMT5 [1]
  pIC50: 6.30 to 7.30
PRMT5 [1]; [5]
  SAM/MTA Ratio: A (a Ki ratio greater than or equal to 10 fold between the Ki in the presence of SAM and the Ki in the presence of MTA)
PRMT5 [2]
  pIC50: ≤ 5.30
HAP1 MTAP-intact
  pIC50: ≤ 5.00
HAP1 MTAP-deleted
  pIC50: ≤ 5.00
  MTAP Intact/Deleted Ratio: C* (an IC50 ratio of less than 3 fold between the IC50 in the HAP1 MTAP-intact cell line and the HAP1 MTAP-deleted cell line)
PRMT5 [3]
  pIC50: 6.30 to 7.30

## Cc1c(OCc2cnco2)ccc2c1CCN(C[C@@H](O)CNC(=O)c1ccnc(NC3CCC3)c1)C2 [Compound 179, 2-(cyclobutylamino)-N-[(2S)-2-hydroxy-3-[5-methyl-6-(oxazol-5-ylmethoxy)-3,4-dihydro-1H-isoquinolin-2-yl]propyl]pyridine-4-carboxamide]
PRMT5 [1]
  pIC50: 6.30 to 7.30
PRMT5 [1]; [4]
  SAM/MTA Ratio: A (a Ki ratio greater than or equal to 10 fold between the Ki in the presence of SAM and the Ki in the presence of MTA)
PRMT5 [2]; read-out: No Co-factor IC50
  pIC50: ≤ 5.30
HAP1 MTAP-intact
  pIC50: ≤ 5.00
HAP1 MTAP-deleted
  pIC50: 5.00 to 6.00
  MTAP Intact/Deleted Ratio: C* (an IC50 ratio of less than 3 fold between the IC50 in the HAP1 MTAP-intact cell line and the HAP1 MTAP-deleted cell line)
PRMT5 [3]
  pIC50: 6.30 to 7.30

## Cc1c(OCc2cnco2)ccc2c1CCN(C[C@@H](O)CNC(=O)c1cc(NC3CCCC3)ncn1)C2 [Compound 393, 6-(cyclopentylamino)-N-[(2S)-2-hydroxy-3-{5-methyl-6-[(1,3-oxazol-5-yl)methoxy]-1,2,3,4-tetrahydroisoquinolin-2-yl}propyl]pyrimidine-4-carboxamide]
PRMT5 [1]
  pIC50: 5.30 to 6.30
PRMT5 [1]; [4]
  SAM/MTA Ratio: A (a Ki ratio greater than or equal to 10 fold between the Ki in the presence of SAM and the Ki in the presence of MTA)
PRMT5 [2]; read-out: No Co-factor IC50
  pIC50: ≤ 5.30
HAP1 MTAP-intact
  pIC50: ≤ 5.00
HAP1 MTAP-deleted
  pIC50: ≤ 5.00
  MTAP Intact/Deleted Ratio: C* (an IC50 ratio of less than 3 fold between the IC50 in the HAP1 MTAP-intact cell line and the HAP1 MTAP-deleted cell line)
PRMT5 [3]
  pIC50: 5.30 to 6.30

## CN1CCN(c2cc(C(=O)NC[C@H](O)CN3CCc4c(ccc(OCc5cnco5)c4Cl)C3)cc(NC3CCC3)n2)CC1 [Compound 419, (S)—N-(3-(5-chloro-6-(oxazol-5-ylmethoxy)-3N-dihydroisoquinolin-2(1H)-yl)-2-hydroxypropyl)-2-(cyclobutylamino)-6-(4-methylpiperazin-1-yl)isonicotinamide]
PRMT5 [1]
  pIC50: 6.30 to 7.30
PRMT5 [1]; [4]
  SAM/MTA Ratio: A (a Ki ratio greater than or equal to 10 fold between the Ki in the presence of SAM and the Ki in the presence of MTA)
PRMT5 [2]; read-out: No Co-factor IC50
  pIC50: 5.30 to 6.30
HAP1 MTAP-intact
  pIC50: ≤ 5.00
HAP1 MTAP-deleted
  pIC50: ≤ 5.00
  MTAP Intact/Deleted Ratio: C* (an IC50 ratio of less than 3 fold between the IC50 in the HAP1 MTAP-intact cell line and the HAP1 MTAP-deleted cell line)
PRMT5 [3]
  pIC50: 6.30 to 7.30

## O=C(NC[C@H](O)CN1CCc2c(ccc(OCc3cnco3)c2Cl)C1)c1ccnc(NC2CC(F)(F)C2)c1 [Compound 357, (S)—N-(3-(5-chloro-6-(oxazol-5-ylmethoxy)-3,4-dihydroisoquinolin-2(1H)-yl)-2-hydroxypropyl)-2-((3,3-difluorocyclobutyl)amino)isonicotinamide]
PRMT5 [1]
  pIC50: 6.30 to 7.30
PRMT5 [1]; [4]
  SAM/MTA Ratio: A (a Ki ratio greater than or equal to 10 fold between the Ki in the presence of SAM and the Ki in the presence of MTA)
PRMT5 [2]; read-out: No Co-factor IC50
  pIC50: ≤ 5.30
HAP1 MTAP-intact
  pIC50: ≤ 5.00
HAP1 MTAP-deleted
  pIC50: ≤ 5.00
  MTAP Intact/Deleted Ratio: C* (an IC50 ratio of less than 3 fold between the IC50 in the HAP1 MTAP-intact cell line and the HAP1 MTAP-deleted cell line)
PRMT5 [3]
  pIC50: 5.30 to 6.30
